From patent publication US20260285855A1, “HETEROARYL DERIVATIVES AS DDRS INHIBITORS” (CHIESI FARMACEUTICI S.P.A., priority 2023, published 2026) come the findings set out here.

Assay [1] concerns the target T1, DDR1 (Homo sapiens, UniProt Q08345).
T1 construct: purchased Carna Biosciences
Briefly: LanthaScreen Europium Kinase Binding assay, DDR1. To be noted: 5 nM DDR1, 20 nM Kinase Tracer 178, 1 h at rt; Ki from IC50 by Cheng-Prusoff; read-out: Ki DDR1. The procedure:
(§1) DDR1 and DDR2 binding assays were performed using Life Technologies LanthaScreen™ Europium Kinase Binding assay. […] IC50 values were determined in GraphPad Prism 7.0 software, using 4 parameter model: log (inhibitor) vs. response. IC50 values were converted in Ki using the Cheng-Prusoff equation (Ki-IC50/(1+ [Tracer]/Kd).
On the technique in general: TR-FRET usually uses a lanthanide donor and a delayed reading to cut background.

For assay [2], the target named is T2, DDR2 (Homo sapiens, UniProt Q16832).
T2 construct: purchased Life Technologies
T2 sequence (Q16832 22-855): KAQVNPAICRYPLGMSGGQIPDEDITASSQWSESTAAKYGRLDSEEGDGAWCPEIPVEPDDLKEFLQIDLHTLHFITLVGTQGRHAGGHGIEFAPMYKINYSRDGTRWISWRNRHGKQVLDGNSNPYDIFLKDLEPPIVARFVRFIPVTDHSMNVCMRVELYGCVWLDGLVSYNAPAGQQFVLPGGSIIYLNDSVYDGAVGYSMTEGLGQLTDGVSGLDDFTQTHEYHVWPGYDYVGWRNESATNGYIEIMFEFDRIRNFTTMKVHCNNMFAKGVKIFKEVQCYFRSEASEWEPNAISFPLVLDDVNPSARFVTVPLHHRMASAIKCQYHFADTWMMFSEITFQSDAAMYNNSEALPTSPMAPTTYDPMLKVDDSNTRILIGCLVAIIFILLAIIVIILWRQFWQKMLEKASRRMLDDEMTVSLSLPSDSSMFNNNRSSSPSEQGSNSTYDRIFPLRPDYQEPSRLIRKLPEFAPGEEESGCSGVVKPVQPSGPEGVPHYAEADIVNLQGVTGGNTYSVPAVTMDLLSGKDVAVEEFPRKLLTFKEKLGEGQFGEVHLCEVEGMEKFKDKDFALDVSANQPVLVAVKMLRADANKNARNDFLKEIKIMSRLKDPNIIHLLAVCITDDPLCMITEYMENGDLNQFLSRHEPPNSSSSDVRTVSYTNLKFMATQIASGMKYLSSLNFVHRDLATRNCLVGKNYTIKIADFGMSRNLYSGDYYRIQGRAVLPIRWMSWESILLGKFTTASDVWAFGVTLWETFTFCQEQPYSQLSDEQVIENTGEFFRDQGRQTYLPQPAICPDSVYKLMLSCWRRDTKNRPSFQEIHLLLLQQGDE
Briefly: LanthaScreen Europium Kinase Binding assay, DDR2. To be noted: 5 nM DDR2, 10 nM Kinase Tracer 178, 1 h at rt; Ki from IC50 by Cheng-Prusoff; read-out: Ki DDR2. The procedure:
as §1

Structures are written as SMILES. pKi: −log10 of the molar value. Bounds are passed on as bounds.

A word on the pKi: it is −log10 of the Ki, conventionally taken in molar units.

T1 sequence (Q08345 19-913): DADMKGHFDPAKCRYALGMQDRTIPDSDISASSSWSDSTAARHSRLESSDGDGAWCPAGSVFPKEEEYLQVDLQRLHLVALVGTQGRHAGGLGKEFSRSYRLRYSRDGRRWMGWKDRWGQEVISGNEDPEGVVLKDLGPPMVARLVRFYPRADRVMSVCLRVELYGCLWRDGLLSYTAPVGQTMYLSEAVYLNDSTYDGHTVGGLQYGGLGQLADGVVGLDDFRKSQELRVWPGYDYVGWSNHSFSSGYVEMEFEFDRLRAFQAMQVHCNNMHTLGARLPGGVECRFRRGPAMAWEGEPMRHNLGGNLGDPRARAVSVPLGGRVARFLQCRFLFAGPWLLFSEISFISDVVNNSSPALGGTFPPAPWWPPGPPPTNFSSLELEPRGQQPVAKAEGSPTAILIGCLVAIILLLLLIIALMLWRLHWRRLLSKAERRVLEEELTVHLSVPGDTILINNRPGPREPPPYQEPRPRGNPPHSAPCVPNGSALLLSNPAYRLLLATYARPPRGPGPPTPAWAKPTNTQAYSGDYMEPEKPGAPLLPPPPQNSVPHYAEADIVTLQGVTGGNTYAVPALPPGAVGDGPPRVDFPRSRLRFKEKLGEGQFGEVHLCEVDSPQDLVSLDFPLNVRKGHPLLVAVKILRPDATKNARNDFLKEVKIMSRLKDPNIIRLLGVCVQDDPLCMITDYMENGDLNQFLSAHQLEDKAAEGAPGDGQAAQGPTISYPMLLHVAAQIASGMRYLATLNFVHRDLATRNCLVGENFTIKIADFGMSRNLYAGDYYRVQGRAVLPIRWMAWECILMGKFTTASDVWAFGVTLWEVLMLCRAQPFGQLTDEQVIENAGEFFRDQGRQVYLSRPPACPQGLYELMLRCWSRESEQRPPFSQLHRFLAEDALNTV

For the compound `CCn1ccn2ncc(C(=O)N3CC4(CC(NC(=O)Nc5cccc(C(F)(F)F)c5)C4)C3)c12` [Example 70, 1-(2-(1-ethyl-1H-imidazo[1,2-b]pyrazole-7-carbonyl)-2-azaspiro[3.3]heptan-6-yl)-3-(3-(trifluoromethyl)phenyl)urea], the negative logarithm of the Ki (pKi) in assay [1] and in assay [2] was greater than 8.30 in each case.
Regarding `Cn1ccn2ncc(C(=O)N3CC4(CC(NC(=O)Nc5cc(C#N)cc(OC(F)(F)F)c5)C4)C3)c12` [Example 71, 1-(3-cyano-5-(trifluoromethoxy)phenyl)-3-(2-(1-methyl-1H-imidazo[1,2-b]pyrazole-7-carbonyl)-2-azaspiro[3.3]heptan-6-yl)urea], the pKi in assay [1] and in assay [2] was greater than 8.30 in each case.
As for `Cn1ccn2ncc(C(=O)N3CC4(CC(NC(=O)Nc5cc(OC(F)(F)F)ccc5F)C4)C3)c12` [Example 72, 1-(2-fluoro-5-(trifluoromethoxy)phenyl)-3-(2-(1-methyl-1H-imidazo[1,2-b]pyrazole-7-carbonyl)-2-azaspiro[3.3]heptan-6-yl)urea], the negative-log Ki (pKi) was greater than 8.30 in assay [1] and 7.60 to 8.30 in assay [2].
Consider `Cn1ccn2ncc(C(=O)N3CC4(CC(NC(=O)Nc5cc(OC(F)(F)F)ccn5)C4)C3)c12` [Example 73, 1-(2-(1-methyl-1H-imidazo[1,2-b]pyrazole-7-carbonyl)-2-azaspiro[3.3]heptan-6-yl)-3-(4-(trifluoromethoxy)pyridin-2-yl)urea], for which the pKi is greater than 8.30 in assay [1] and 7.60 to 8.30 in assay [2].
The corresponding values for `O=C(Nc1cc(C(F)F)ccn1)NC1CC2(C1)CN(C(=O)c1ncnc3ccsc13)C2` [Example 74, 1-(4-(difluoromethyl)pyridin-2-yl)-3-(2-(thieno[3,2-d]pyrimidine-4-carbonyl)-2-azaspiro[3.3]heptan-6-yl)urea] are greater than 8.30 and greater than 8.30.
`Cn1ccn2ncc(C(=O)N3CC4(CC(NC(=O)Nc5cc(C(F)(F)F)ccn5)C4)C3)c12` [Example 75, 1-(2-(1-methyl-1H-imidazo[1,2-b]pyrazole-7-carbonyl)-2-azaspiro[3.3]heptan-6-yl)-3-(4-(trifluoromethyl)pyridin-2-yl)urea]: the pKi in assay [1] is greater than 8.30; in assay [2], 7.60 to 8.30.
With `COc1ccc(OC(F)(F)F)cc1NC(=O)N(C)C1CC2(C1)CN(C(=O)c1ncnc3ccsc13)C2` [Example 77, 3-(2-methoxy-5-(trifluoromethoxy)phenyl)-1-methyl-1-(2-(thieno[3,2-d]pyrimidine-4-carbonyl)-2-azaspiro[3.3]heptan-6-yl)urea], the negative logarithm of the Ki (pKi) in assay [1] is greater than 8.30; in assay [2], 7.60 to 8.30.
Consider `COc1c(CO)cc(OC(F)(F)F)cc1NC(=O)NC1CC2(C1)CN(C(=O)c1cnn3ccn(C)c13)C2` [Example 78, 1-(3-(hydroxymethyl)-2-methoxy-5-(trifluoromethoxy)phenyl)-3-(2-(1-methyl-1H-imidazo[1,2-b]pyrazole-7-carbonyl)-2-azaspiro[3.3]heptan-6-yl)urea], for which the pKi in assay [1] was greater than 8.30; in assay [2] it was 7.00 to 7.60.
The like results for `O=C(Nc1cccc(C(F)(F)F)c1)NC1CC2(C1)CN(C(=O)c1ncnc3ccsc13)C2` [Example 79, 1-(2-(thieno[3,2-d]pyrimidine-4-carbonyl)-2-azaspiro[3.3]heptan-6-yl)-3-(3-(trifluoromethyl)phenyl)urea] were, in that order, greater than 8.30 and greater than 8.30.
The like results for `Cc1ccc(-n2nc(C(C)(C)C)cc2NC(=O)NC2CC3(C2)CN(C(=O)c2cnn4ccsc24)C3)cc1` [Example 80, 1-(3-(tert-butyl)-1-(p-tolyl)-1H-pyrazol-5-yl)-3-(2-(pyrazolo[5,1-b]thiazole-7-carbonyl)-2-azaspiro[3.3]heptan-6-yl)urea] were, in that order, greater than 8.30 and 7.60 to 8.30.
Regarding `COc1ccc(OC(F)(F)F)cc1NC(=O)N(C)C1CC2(C1)CN(C(=O)c1cnn3ccc(N4CCN(C)CC4)cc13)C2` [Example 81, 3-(2-methoxy-5-(trifluoromethoxy)phenyl)-1-methyl-1-(2-(5-(4-methylpiperazin-1-yl)pyrazolo[1,5-a]pyridine-3-carbonyl)-2-azaspiro[3.3]heptan-6-yl)urea], the pKi in assay [1] is greater than 8.30; in assay [2] it was 7.60 to 8.30.
The like results for `Cc1ccc(-n2nc(C(C)(C)C)cc2NC(=O)NC2CC3(C2)CN(C(=O)c2ncnc4ccsc24)C3)cc1` [Example 82, 1-(3-(tert-butyl)-1-(p-tolyl)-1H-pyrazol-5-yl)-3-(2-(thieno[3,2-d]pyrimidine-4-carbonyl)-2-azaspiro[3.3]heptan-6-yl)urea] were, in that order, greater than 8.30 and 7.60 to 8.30.
As to `COc1ncc(Cl)cc1NC(=O)NC1CC2(C1)CN(C(=O)c1cnn3ccn(C)c13)C2` [Example 83, 1-(5-chloro-2-methoxypyridin-3-yl)-3-(2-(1-methyl-1H-imidazo[1,2-b]pyrazole-7-carbonyl)-2-azaspiro[3.3]heptan-6-yl)urea], the pKi in assay [1] was greater than 8.30; in assay [2], 7.60 to 8.30.
The like results for `CN1CCN(c2ccn3ncc(C(=O)N4CC5(CC(NC(=O)Nc6cccc(C(F)(F)F)c6)C5)C4)c3c2)CC1` [Example 84, 1-(2-(5-(4-methylpiperazin-1-yl)pyrazolo[1,5-a]pyridine-3-carbonyl)-2-azaspiro[3.3]heptan-6-yl)-3-(3-(trifluoromethyl)phenyl)urea] were, in that order, greater than 8.30 and 7.60 to 8.30.
Turning to `CCN(C(=O)Nc1cccc(C(F)(F)F)c1)C1CC2(C1)CN(C(=O)c1cnn3ccn(C)c13)C2` [Example 85, 1-ethyl-1-(2-(1-methyl-1H-imidazo[1,2-b]pyrazole-7-carbonyl)-2-azaspiro[3.3]heptan-6-yl)-3-(3-(trifluoromethyl)phenyl)urea], the values for the pKi in assay [1] and in assay [2] were greater than 8.30 and 7.60 to 8.30, respectively.
The like results for `CCN(C(=O)Nc1cc(F)cc(C(F)(F)F)c1)C1CC2(C1)CN(C(=O)c1cnn3ccn(C)c13)C2` [Example 86, 1-ethyl-3-(3-fluoro-5-(trifluoromethyl)phenyl)-1-(2-(1-methyl-1H-imidazo[1,2-b]pyrazole-7-carbonyl)-2-azaspiro[3.3]heptan-6-yl)urea] were, in that order, greater than 8.30 and 7.60 to 8.30.
Regarding `CN1CCN(c2ccn3ncc(C(=O)N4CC5(CC(NC(=O)Nc6cc(C#N)cc(C(F)(F)F)c6)C5)C4)c3c2)CC1` [Example 87, 1-(3-cyano-5-(trifluoromethyl)phenyl)-3-(2-(5-(4-methylpiperazin-1-yl)pyrazolo[1,5-a]pyridine-3-carbonyl)-2-azaspiro[3.3]heptan-6-yl)urea], the pKi in assay [1] was greater than 8.30; in assay [2] it was 7.60 to 8.30.
The like results for `O=C(Nc1cccc(C(F)(F)F)c1)NC1CC2(C1)CN(C(=O)c1ncnc3sccc13)C2` [Example 88, 1-(2-(thieno[2,3-d]pyrimidine-4-carbonyl)-2-azaspiro[3.3]heptan-6-yl)-3-(3-(trifluoromethyl)phenyl)urea] were, in that order, greater than 8.30 and 7.60 to 8.30.
The like results for `O=C(Nc1cccc(OC(F)F)c1)NC1CC2(C1)CN(C(=O)c1ncnc3ccsc13)C2` [Example 89, 1-(3-(difluoromethoxy)phenyl)-3-(2-(thieno[3,2-d]pyrimidine-4-carbonyl)-2-azaspiro[3.3]heptan-6-yl)urea] were, in that order, greater than 8.30 and greater than 8.30.
Turning to `O=C(Nc1cc(C(F)(F)F)ccn1)NC1CC2(C1)CN(C(=O)c1ncnc3ccsc13)C2` [Example 90, 1-(2-(thieno[3,2-d]pyrimidine-4-carbonyl)-2-azaspiro[3.3]heptan-6-yl)-3-(4-(trifluoromethyl)pyridin-2-yl)urea], the negative-log Ki (pKi) in assay [1] and in assay [2] was greater than 8.30 throughout.
For `COc1ccc(OC(F)F)cc1NC(=O)NC1CC2(C1)CN(C(=O)c1cnn3ccn(C)c13)C2` [Example 91, 1-(5-(difluoromethoxy)-2-methoxyphenyl)-3-(2-(1-methyl-1H-imidazo[1,2-b]pyrazole-7-carbonyl)-2-azaspiro[3.3]heptan-6-yl)urea], the pKi is greater than 8.30 in assay [1] and 7.60 to 8.30 in assay [2].
The like results for `Cn1ccn2ncc(C(=O)N3CC4(CC(NC(=O)Nc5cc(OC(F)(F)F)ccc5Cl)C4)C3)c12` [Example 92, 1-(2-chloro-5-(trifluoromethoxy)phenyl)-3-(2-(1-methyl-1H-imidazo[1,2-b]pyrazole-7-carbonyl)-2-azaspiro[3.3]heptan-6-yl)urea] were, in that order, greater than 8.30 and greater than 8.30.
